Experimental data from patent US11738095B2, “Cyanine-containing compounds for cancer imaging and treatment” (Emory University, priority 2007, dated 2023).
Like-named read-outs stand apart in the source and are kept apart here.

Assays:
[1] = test system: subcutaneous HepG2, C4-2, H358, HeLa, MCF-7 and ARCaPM tumors; experiment: imaging of subcutaneous human tumors in mice with IR780 (FIG. 13); format: in vivo, mouse; details: 5 n mol tail vein, tumors 0.5-1.0 cm
Description: Subcutaneous HepG2 (human liver cancer), C4-2 (human prostate androgen-independent and metastatic cancer), H358 (human lung cancer), HeLa (human cervical cancer), MCF-7 (human breast cancer) and ARCaPM (a highly bone and soft tissue metastatic human prostate cancer) cancers were established in live mice prior to the administration of IR-780. The tumor xenografts were measured about 0.5-1.0 cm in diameter at the time of imaging. 5 n mol of IR-780 were given to mice through tail vein and imaged using Kodak multimodal-imaging system. The distribution of IR-780 in tumor tissues was conformed by imaging of frozen sections under confocal microscope. The histopathology of the tumor was confirmed by H/E staining of the frozen tissue specimens and DAPI stained cell nuclei.

[2] = test system: ARCaPM cells; experiment: confocal imaging of IR780 uptake and localization in ARCaPM cells (FIG. 11, 12); format: cell-based, human
Description: In FIG. 11, ARCaPM Cells were plated on live-cell imaging chambers from World Precision Instrument (Sarasota, Fla.) overnight. Cells were treated with IR-780 with different concentrations and were imaged using a Perkin-Elmer Ultraview ERS spinning disc confocal microscope. This system was mounted on a Zeiss Axiovert 200 m inverted microscope equipped with a 37° C. stage warmer, incubator, and CO2 perfusion. A x63 or x100 Zeiss oil objective (numerical aperture, 1.4) was used for all images and a Z-stack was created using the attached piezoelectric z-stepper motor. The 633 nm laser line of an […] (set at 60% power) was used to excite the IR-780 organic dye. For each comparison, the exposure time and laser intensity was kept identical for accurate intensity measurement. Pixel intensity was quantitated using Metamorph 6.1 (Universal Imaging, Downingtown, Pa.) and the mean pixel intensity was generated as grey level using the Region Statistics feature on the software.

[3] = test system: human cancer cells: ARCaPM, C4-2, PC-3, HepG2, MCF-7, RCC, T-24, HeLa, K562, H358; experiment: uptake of IR780 by human cancer cells in culture (FIG. 10); format: cell-based; details: 20 uM, 30 minutes, confocal microscope
Description: The uptake of IR780 by human cancer cells in culture was also studied. […] All the cells were cultured with 20 uM IR-780 in basal media (T-medium with 5% fetal bovine serum and 1% antibiotics) for 30 minutes and were imaged under confocal microscope.

[4] = test system: normal prostate fibroblasts (NPF), normal prostate epithelial cells (NPE), marrow stromal cells BMC; experiment: uptake of IR780 by normal human cells in culture (FIG. 10); format: cell-based
[5] = Description: Mice were injected with 20 μg/Kg of IR783 and IR780 (which was 100× of the imaging dose which was 0.2 μg/Kg) and results were compared for a 28 day period. […] Zero grams means the mouse died. ICG is a FDA approved dye used for several diagnostic purposes. ICG is considered to be nontoxic. ICG is used here as a measure of the toxicity of the tested compounds.
Toxicity test of dye based on body weight gained during the treatment period from 0 to 14 days.

[6] = tail vein injection, data not shown
[7] = FDA approved dye; cited from earlier work
[8] = test system: spontaneously developed prostate tumor; experiment: imaging of spontaneous prostate tumor in TRAMP transgenic mouse with MHI-148 (FIG. 8); format: in vivo
Source text: 10 nmol of MHI-148 was given to a 46 week-old TRAMP transgenic mouse with spontaneously developed prostate tumor mass and imaged after 4 hrs after MHI-148 injection (panel A). […] Surgical dissection of this mouse confirmed […] was present (panel C).

[9] = test system: normal prostate fibroblasts, marrow stromal cells BMC, normal vascular endothelial cells VEC, mouse macrophage RAW cells; experiment: uptake of MHI-148 by normal human or mouse cells in culture (FIG. 1); format: cell-based; details: 100 μM, two hours
Description: (§1) All the cells were cultured with 100 μM MHI-148 in basal media (T-medium with 5% fetal bovine serum and 1% antibiotics) for two hours and were imaged under an inverted microscope. These conditions are the usual conditions used here unless otherwise specified.

[10] = test system: human ARCaPM prostate cancer cells; experiment: imaging of MHI-148 tagged ARCaPM cells injected into mice (FIG. 2B, C); format: in vivo, mouse; details: one million ARCaPM cells tagged with 10 uM MHI-148
Description: (§2) After incubation for 2 hours, cells were washed 3 times with PBS, harvested by centrifuge and imaged. One million of the MHI-148 tagged ARCaPM cells with different concentrations were injected subcutaneously in the back of the mouse and imaged at the same time (B). […] All the in vitro and in vivo imaging was performed using a Kodak multimodal-imaging system IS2000MM (Kodak) equipped with an excitation bandpass filter at 720 nm and an emission at 850 nm. Exposure time was 30 s per image. The images were analyzed using the imaging station IS2000MM software (Kodak 1D Image Analysis Software; Kodak).

[11] = test system: C4-2 tumor; experiment: imaging of live and necrotic intratibial C4-2 tumors with MHI-148 (FIG. 6); format: in vivo, mouse; details: 10 nmol tail vein, imaged after 48 hrs
Description: C4-2 cells were injected into both sides of tibia of one mouse. When one tumor was developed to size with visible necrosis and the other tumor still in the fast growing phase, 10 nmol MHI-148 was given through tail vein. After 48 hrs, the mouse was imaged. […] The histopathology of the tumors was confirmed by the H/E stain (see upper right panel).

[12] = test system: Cancer cell; experiment: CellTiter 96 Aqueous One Solution Cell Proliferation Assay (FIG. 7); format: cell-based; details: different concentrations, 48 hrs, T-medium 5% FBS
Description: Cancer cell were plated in 96-well plates in T-medium containing 5% FBS with different concentrations of MHI-148 for 48 hrs of incubation. Cell numbers were measured using CellTiter 96 Aqueous One Solution Cell Proliferation Assay (Promega, Madison, Wis.).

[13] = test system: human ARCaPM prostate cancer cells; experiment: imaging of MHI-148 tagged ARCaPM cells in test tubes (FIG. 2A); format: cell-based; details: 1, 10 and 100 μM, incubation 2 hours, excitation 720 nm, emission 850 nm
Description: as §2

[14] = photostability of MHI-148; format: physicochemical
[15] = test system: human ARCaPE, ARCaPM, and C4-2 tumors; experiment: detection of multiple tumors in one mouse with MHI-148 (FIG. 5); format: in vivo; details: 10 nmol tail vein, 96 hrs
Description: A mouse had 5 pre-established human ARCaPE, ARCaPM, and C4-2 tumors in the back by subcutaneous injection of tumor cells. Four tumors were measured with 0.2-1.0 cm in diameter and one tumor was not detectable by visualization at the time of NHI-148 administration. […] Visual and palpation techniques could only detect four tumors, while MHI-148 (10 nmol), after tail vein administration, clearly gained access to all tumors in the live mouse and allowed tumor images to be detected in all five tumors.

[16] = test system: human cancer cells: LNCaP, ARCaPE, ARCaPM, C4-2, PC-3, HepG2, MG63, MCF-7, RCC, T-24, HeLa, K562, H358; experiment: uptake of MHI-148 by human cancer cells in culture (FIG. 1); format: cell-based; details: 100 μM, two hours, T-medium with 5% fetal bovine serum, inverted microscope
Description: as §1

[17] = test system: normal prostate epithelial cells NPE and normal human skin epithelial cells HaCaT; experiment: uptake of MHI-148 by normal epithelial cells in culture (FIG. 1); format: cell-based; details: 100 μM, two hours
Description: as §1

[18] = test system: spontaneous prostate tumor in a TRAMP mouse; experiment: imaging of spontaneous TRAMP prostate tumor, fresh and after fixation (FIG. 16B, C); format: in vivo; details: TRAMP mouse spontaneous prostate tumors, FIG. 16 legend
Description: NIR imaging studies were performed to assess pharmacokinetics of the IR783 in vivo. […] This mouse was injected i.p with 0.2 μg/kg IR783 at 0 hrs. […] The dye retention in formalin fixed tissues can be as long as several weeks (data not shown).

[19] = test system: subcutaneous ARCaPM, intratibial C4-2, H358 and K562 tumors; experiment: imaging of pre-established tumors in live mice with MHI-148 (FIG. 4); format: in vivo, mouse
Description: Subcutaneous ARCaPM and intratibial C4-2 tumors were established in live mice prior to the administration of MHI-148. The tumors measured about 0.5-1.0 cm in diameter at the time of imaging. 10 nmol of MHI-148 was given to mice through tail vein and imaged using Kodak multimodal-imaging system. Human lung (H358) and leukemia (K562) cancer cells were injected subcutaneously into one side of the shoulder of mice. When the tumors were about 1-2 cm in diameter, 10 nmol MHI-148 was given through tail vein and tumor images were taken at 96 hrs after MHI-148 administration.

[20] = distribution of MHI-148 in normal mice, in vivo and ex vivo organ imaging (FIG. 3); set-up: species or system mouse; details: for fluorescence of isolated liver, kidney and testis: Xenogen
Description: MHI-148 (5 nmol) was given by tail vein injection and the MHI-148 distribution followed at 2, 6, and 96 hrs. At the end of this study, mice were sacrificed at 6 or 80 hrs after MHI-148 tail vein administration. […] The isolated tissues and organs excised from mice at 6 hours and 80 hours after receiving 5 nmol MHI-148 were also imaged by the Xenogen machine and the signals were compared by fluorescence intensity.

[21] = dose 1X (imaging dose 0.2 μg/Kg), 0 day

Compound: CCCN1/C(=C/C=C2\CCCC(/C=C/C3=[N+](CCC)c4ccccc4C3(C)C)=C2Cl)C(C)(C)c2ccccc21.[I-] [IR780]
- tumor images [1]: clear tumor images can be detected
- subcellular localization ([2]; co-stained with mitochondrial tracker or lysosome tracker): co-localized with mitochondrial, lysomomal and cytoplasmic compartments
- effect of BSP (organic anion transporter inhibitor) on uptake ([2]; data not shown): blocked by BSP
- dependence of uptake ([2]; different concentrations, live-cell confocal imaging): time- and concentration-dependent uptake
- uptake of IR-780 [3]: significant uptake
- uptake of IR-780 ([4]; 20 uM, 30 minutes, confocal microscope): very low uptake
- uptake by normal prostate epithelial cells ([4]; data not shown): did not take up the dye
- body weight [5, 21]: 19.00 g
- body weight ([5]; dose 1X, 1 day): 19.02 g
- body weight ([5]; dose 1X, 2 day): 19.71 g
- body weight ([5]; dose 1X, 3 day): 20.01 g
- body weight ([5]; dose 1X, 4 day): 20.32 g
- body weight ([5]; dose 1X, 5 day): 20.56 g
- body weight ([5]; dose 1X, 6 day): 20.97 g
- body weight ([5]; dose 1X, 7 day): 21.81 g
- body weight ([5]; dose 1X, 14 day): 23.56 g
- body weight ([5]; dose 1X, 28 day): 24.44 g
- body weight ([5]; dose 10X, 0 day): 20.71 g
- body weight ([5]; dose 10X, 1 day): 20.69 g
- body weight ([5]; dose 10X, 2 day): 20.70 g
- body weight ([5]; dose 10X, 3 day): 21.03 g
- body weight ([5]; dose 10X, 4 day): 21.24 g
- body weight ([5]; dose 10X, 5 day): 21.89 g
- body weight ([5]; dose 10X, 6 day): 22.00 g
- body weight ([5]; dose 10X, 7 day): 22.56 g
- body weight ([5]; dose 10X, 14 day): 24.00 g
- body weight ([5]; dose 10X, 28 day): 24.56 g
- body weight ([5]; dose 100X (20 μg/Kg), 0 day): 20.14 g
- body weight ([5]; dose 100X, 1 day, zero grams means the mouse died): 0 g
- body weight ([5]; dose 100X, 2 day, zero grams means the mouse died): 0 g
- body weight ([5]; dose 100X, 3 day, zero grams means the mouse died): 0 g
- body weight ([5]; dose 100X, 4 day, zero grams means the mouse died): 0 g
- body weight ([5]; dose 100X, 5 day, zero grams means the mouse died): 0 g
- body weight ([5]; dose 100X, 6 day, zero grams means the mouse died): 0 g
- body weight ([5]; dose 100X, 7 day, zero grams means the mouse died): 0 g
- body weight ([5]; dose 100X, 14 day, zero grams means the mouse died): 0 g
- body weight ([5]; dose 100X, 28 day, zero grams means the mouse died): 0 g
- uptake by normal mouse tissues [6]: failed to uptake IR780

Compound: CC1(C)C(/C=C/C=C/C=C/C=C2\N(CCCCS(=O)(=O)[O-])c3ccc4ccccc4c3C2(C)C)=[N+](CCCCS(=O)(=O)[O-])c2ccc3ccccc3c21.[Na+] [ICG, reference compound]
- toxicity (general reputation) [7]: nontoxic
- body weight [5, 21]: 20.43 g
- body weight ([5]; dose 1X, 1 day): 20.49 g
- body weight ([5]; dose 1X, 2 day): 20.51 g
- body weight ([5]; dose 1X, 3 day): 21.01 g
- body weight ([5]; dose 1X, 4 day): 21.43 g
- body weight ([5]; dose 1X, 5 day): 22.00 g
- body weight ([5]; dose 1X, 6 day): 22.34 g
- body weight ([5]; dose 1X, 7 day): 22.96 g
- body weight ([5]; dose 1X, 14 day): 23.87 g
- body weight ([5]; dose 1X, 28 day): 25.00 g

Compound: CC1(C)C(/C=C/C2=C(Cl)C(=C/C=C3/N(CCCCCC(=O)O)c4ccccc4C3(C)C)/CCC2)=[N+](CCCCCC(=O)O)c2ccccc21.[Br-] [MHI-148]
- imaging of prostate tumor mass ([8]; 46 week-old TRAMP mouse, 10 nmol, 4 hrs after injection): showed clear tumor in situ
- signal in mouse without tumor ([8]; young age TRAMP mouse which harbored no tumor): no signal was detected
- uptake of MHI-148 [9]: failed to yield any time- or concentration-dependent uptake
- image of tagged cells injected into mouse tibia [10]: can be seen in the intratibial space
- uptake by live C4-2 tumor (right tibia) [11]: shown to uptake MHI-148
- uptake by necrotic or dead tumor cells (left side) [11]: failed to uptake MHI-148
- cancer cell growth (cell numbers) [12]: inhibition of cancer growth in vitro
- images of MHI-148 tagged ARCaPM cells in test tubes [13]: intense images can be readily detected
- photostability [14]: relatively photostable
- size of smallest tumor imaged [15]: < 2 mm^3
- tumors imaged ([15]; mouse with 5 tumors): All five tumors were imaged
- uptake of MHI-148 [16]: significant uptake
- uptake of MHI-148 [17]: low uptake
- stability of dye in formalin fixation [18]: stable in formalin fixation for weeks
- tumor images ([19]; 10 nmol tail vein, H358 and K562 images at 96 hrs): Clear tumor associated images are seen
- fate in tumors versus host ([19]; 96 hrs after administration): accumulated in tumors
- fluorescence of isolated liver, kidney and testis ([20]; 5 nmol tail vein, 6 hrs post administration): positive
- fluorescence of isolated liver, kidney and testis ([20]; 5 nmol tail vein, 80 hrs post administration): void of any fluorescence signaling
- time to clearance from normal organs (liver, kidney, testis, seminal vesicles) ([20]; live animals): ≤ 96 h
- MHI-148 uptake by the liver and kidney ([20]; normal mice, 5 nmol tail vein, 2 and 6 hrs): can be detected
- MHI-148 in live mice and dissected mouse tissues ([20]; normal mice, 5 nmol tail vein, by 96 hrs): no detectable MHI-148
